Several values for one entry are separate records, joined by “and”; a condition that tells them apart may be missing. Identical values can stand only once.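 Where inhibition never reached the appropriate level, the endpoint shown equals the highest concentration tested. Otherwise, values were interpolated linearly from a five-concentration, 48-hour dose response in 96-well plates. GI50: concentration for 50% inhibition of growth. TGI marks complete inhibition of growth.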
Experiments:
Test in all cases: NCI-60 cell line screen, 48 h
SF-268 CNS = tested on: SF-268 CNS
CAKI-1 renal = tested on: CAKI-1 renal
IGROV1 ovarian = tested on: IGROV1 ovarian
HT29 colon = tested on: HT29 colon
OVCAR-8 ovarian = tested on: OVCAR-8 ovarian
MDA-MB-435 = tested on: MDA-MB-435
DU-145 prostate = tested on: DU-145 prostate
OVCAR-4 ovarian = tested on: OVCAR-4 ovarian
NCI-H226 lung = tested on: NCI-H226 lung
SK-MEL-5 melanoma = tested on: SK-MEL-5 melanoma

Row | SMILES | TGI (SF-268 CNS) [µM] | TGI (CAKI-1 renal) [µM] | TGI (IGROV1 ovarian) [µM] | TGI (HT29 colon) | TGI (OVCAR-8 ovarian) [µM] | TGI (MDA-MB-435) [µM] | TGI (DU-145 prostate) | TGI (OVCAR-4 ovarian) | TGI (NCI-H226 lung) | TGI (SK-MEL-5 melanoma) [µM] | GI50 (HT29 colon) [µM] | GI50 (OVCAR-8 ovarian) [µM] | GI50 (DU-145 prostate) [µM] | GI50 (OVCAR-4 ovarian) [µM] | GI50 (NCI-H226 lung) [µM]
1 | CCS(=O)(=O)c1c2cc(OC)ccc2nc2ccc(OC)cc12 | > 100 | > 100 | > 100 | > 100 µM | > 100 | > 100 | > 100 µM | > 100 µM | > 100 µM |  |  |  |  |  | 
2 | CCOC(=O)C(C)c1nc2cc(N3CCN(C)CC3)c(F)cc2[nH]c1=O (stereo unspecified) | > 100 | > 100 | > 100 | > 100 µM | > 100 | > 100 | > 100 µM | > 100 µM | > 100 µM | > 100 |  |  |  |  | 
3 | C/C=C\C(CC(=O)NCCC1CN(C(=O)c2ccccc2)c2ccccc21)CC(=O)OC (stereo unspecified) | > 100 | > 100 | > 100 | > 100 µM | > 100 | > 100 | > 100 µM | > 100 µM |  | > 100 |  |  |  |  | 
4 | CC(=O)Nc1ccc(-c2nnc(SCC(=O)Nc3ccccc3C)o2)cc1 | > 100 |  | > 100 | > 100 µM | > 100 |  |  | > 100 µM | > 100 µM | > 100 |  |  |  |  | 
5 | O=C1O[C@]2(c3ccccc3)C(c3ccccc3)=C[C@]2(C(=O)c2ccccc2)C1=O | > 100 | > 100 | > 100 | > 100 µM | > 100 | > 100 | > 100 µM | > 100 µM | 98.6 µM | > 100 |  |  |  |  | 
6 | COc1ccc(/C=C2\CN(C)Cc3c2[nH]c(=O)c(C#N)c3-c2ccc(OC)cc2)cc1 | > 100 | > 100 | > 100 | > 100 µM | > 100 | > 100 | > 100 µM | > 100 µM | > 100 µM | > 100 |  |  |  |  | 
7 | NCCCCNC1(c2cc3ccccc3s2)CCCCC1 | 13.5 | 28.1 | 13.1 | 9.7 µM | 20.9 | 3.49 | 23.5 µM | 20.5 µM | 34 µM | 3.63 |  |  |  |  | 
8 | O=C(/C=C/c1ccccc1O)/C=C/c1ccccc1O | 0.905 | 3.21 | 3.31 | 4.85 µM | 5.08 | 4.64 | 3.2 µM | 7.7 µM |  | 2.8 |  |  |  |  | 
9 | COc1ccc2c(c1)-c1oc3ccccc3c(=O)c1CO2 | > 100 | 50.6 | > 100 | > 100 µM | > 100 | > 100 | > 100 µM |  | > 100 µM | 36.2 |  |  |  |  | 
10 | CN(C)CC(NC(NCS)C(=O)NCCNc1ccc(NCCNC(=O)C(NCS)NC(CN(C)C)OCCl)c2c1C(=O)c1c(O)ccc(O)c1C2=O)OCCl (stereo unspecified) |  | 0.119 | 2.49 | 0.278 µM and 1.58 µM |  | 1.45 | 0.977 µM and 0.287 µM | 2.78 µM and 1.3 µM | 0.418 µM and 1.61 µM | 0.94 | 0.228 | 0.0436 | 0.0162 | 0.373 | 0.285
11 | CCOC(=O)N(C)C1(c2ccccc2)CCN(CCCC(=O)c2ccc(F)cc2)CC1 | > 100 | > 100 | > 100 | 38.1 µM | > 100 | 53.6 | > 100 µM | > 100 µM | > 100 µM | 31.3 |  |  |  |  | 

Source: PubChem BioAssay (NCI)
